EC50, IC50 and outcome data for 71 molecules are collected here from PubChem BioAssay AID179 (DTP/NCI, 2004).

The test relates to CEM cells HIV-1 protection, formazan growth assay. Put plainly: NCI AIDS Antiviral Assay. To be noted: for pIC50: measured here: growth of uninfected CEM cells. In a few lines: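 CEM (human) cells, HIV-1 infected vs uninfected, 5-point dosing, formazan growth read-out. Retest threshold 50% protection.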

pEC50, pIC50: −log10 of the molar value. Active and inactive are the calls of the source.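 Rule for the calls: active = compounds giving half or more protection of infected cells from virus-caused growth loss, again on retest; inactive = the rest.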 Where a SMILES comes first, the peptide text is derived from it. [ ]: non-standard residue; d: D form. The star is where a group is joined. ξ: configuration not given here. ξF = NC(Cc1ccccc1)C(=O)O; Cbz = O=C(OCc1ccccc1)*; Aib = CC(C)(N)C(=O)O Where only a bound is given, the exact number is not on record here.

What is called pEC50 is −log10 of the EC50, conventionally taken in molar units. In general, pIC50 refers to the IC50 on a negative log10 scale, so that one unit is a factor of ten. With `C=CC1(C)CN(Cc2ccccc2)C(C(=O)OCC)O1` (configuration not stated), the pEC50 was less than 4.58 and the pIC50 is less than 4.58.
As to `c1cc2c3ccsc3c3sccc3c2s1`, the pEC50 was less than 3.70 and the pIC50 was less than 3.70.
On to `C#CCNC(=O)ON1C(=O)CCC1=O`, for which the pEC50 is less than 2.90 and the pIC50 was less than 2.90.
`COC(=O)C(=O)C(C(=O)C(=O)Nc1ccc(Cl)cc1Cl)c1nc2ccc(Cl)cc2[nH]c1=O` (configuration not stated): the pEC50 is less than 4.42 and the pIC50 was less than 4.42.
Consider `O=C1CCC2=C(CCC2)N1CCc1ccc2c(c1)OCO2`, for which the outcome was inactive.
Take `N#Cc1c(N)nc(Nc2cccc3ccccc23)c(C#N)c1C#N`: the result was inactive.
Turning to `CCOC(=O)c1cn2c(n1)sc1cccc(C)c12`, the pEC50 is less than 3.70 and the pIC50 was less than 3.70.
`O=C(Nc1ccccn1)/C(=C\C(=O)c1ccc(Cl)cc1)Nc1ccccc1`: the pEC50 was less than 3.70 and the pIC50 is 3.76.
In the case of `CCOC(=O)C(NC(=O)CC(C)C)(N1CCN(c2cc3c(cc2F)c(=O)c(C(=O)O)cn3C2CC2)CC1)C(F)(F)F` (configuration not stated), the pEC50 is less than 3.70 and the pIC50 was 5.72.
In the case of `COc1ccc([C@H]2Oc3cc(O)cc(O)c3C(=O)[C@@H]2[C@H]2C(=O)c3c(O)cc(OC)cc3O[C@@H]2c2ccc(OC)cc2)cc1`, the pEC50 was less than 3.70 and the pIC50 was 3.96.
On to `O=NNc1ccc(S(=O)(=O)c2ccc3ccccc3c2)cn1`, for which the pEC50 was less than 3.70 and the pIC50 was 3.95.
For `N#CC(c1cc2c(cc1Br)OCO2)N1CCOCC1` (configuration not stated), the pEC50 is less than 3.70 and the pIC50 was 5.01.
`CC(=O)OCC(OC(C)=O)C(OC(C)=O)C(OC(C)=O)C(=O)CNn1c(-c2ccccc2Cl)nc2ccccc2c1=O` (configuration not stated): the result was inactive.
For `COc1ccc(CCN2C(=O)C(=O)c3ccccc32)cc1OC`, the pEC50 was less than 4.08 and the pIC50 is 4.32.
On to `CC1CCCc2c(CC3CC(=O)NC(=O)C3)nc(N)nc21` (configuration not stated), for which the pEC50 is less than 3.70 and the pIC50 was less than 3.70.
For `O=C(NC1CC(NC(=O)OCc2ccccc2)C2c3ccccc3C12)OCc1ccccc1` (configuration not stated), the outcome was inactive.
Same read-out and setting: with `COC1(OC)c2ccccc2C2(O)c3ccccc3C(=O)C12` (configuration not stated) the entry was “inactive”.
For the molecule `Cc1ccc(NC(=O)CC/C(CC(=O)C(C)(C)C)=N\Nc2ccc([N+](=O)[O-])cc2[N+](=O)[O-])cc1C`, the pEC50 was less than 4.83 and the pIC50 is less than 4.83.
In the case of `Cc1cc(NS(=O)(=O)c2ccc(Nc3c4ccccc4nc4c(C(N)=O)cccc34)cc2)no1`, the pEC50 is less than 3.70 and the pIC50 is 4.97.
As to `N#Cc1ccccc1NC(=O)C(=O)C(C(=O)c1ccccc1F)C1OC(=O)c2ccccc21` (configuration not stated), the pEC50 is less than 3.95 and the negative-log IC50 (pIC50) was 4.79.
Regarding `N#C/C(=C1\SC(=O)CN1c1ccc(Cl)cc1)c1nc2ccccc2o1`, the pEC50 was less than 3.70 and the negative-log IC50 (pIC50) was 4.46.
Turning to `O=C(O)C12CC3CC(CC(F)(C3)C1)C2`, the pEC50 is less than 3.04 and the pIC50 was less than 3.04.
As for `N#CCN(CC#N)C1CC=CCC1N(CC#N)CC#N` (configuration not stated), the pEC50 is less than 3.70 and the pIC50 was 3.99.
With `COC(=O)c1cc(C(c2cc(C(=O)OC)c(O)c(Br)c2C)C(Cl)Cl)c(C)c(Br)c1O`, the pEC50 was less than 3.70 and the pIC50 is 4.18.
As for `CN(C)CCCNC(CC#N)CCC#N` (configuration not stated), the pEC50 was less than 3.70 and the negative-log IC50 (pIC50) was less than 3.70.
Regarding `O=C(OCC(Cl)(Cl)Cl)O[C@@H]1CCCC1(c1ccccc1)c1ccccc1`, the pEC50 is less than 3.87 and the pIC50 was 4.31.
Regarding `O=C1O[C@@H](c2ccccc2)C[C@H]1CN1CCOCC1`, the result was inactive.
`c1ccc(CSc2nc3ccccc3nc2-c2cccs2)cc1`: the pEC50 was less than 4.67 and the pIC50 is less than 4.67.
As for `Cc1ccc2c(c1)CC1(Cc3c(C)cccc3C1=O)C2=O` (configuration not stated), the pEC50 is less than 3.70 and the pIC50 was less than 3.70.
For the molecule `Cc1cc(S(=O)(=O)Nc2nc(N)nc(N3CCCCC3)n2)c(S)cc1Cl`, the pEC50 was less than 3.70 and the pIC50 is less than 3.70.
As to `CC1(c2cccc(N)c2)C2C(=O)NC(=O)C1C(=O)NC2=O` (configuration not stated), the pEC50 was less than 3.48 and the pIC50 was 4.25.
As to `Cc1c2ccccc2nc(CSc2n[nH]c(=S)s2)[n+]1[O-]`, the pEC50 was less than 3.70 and the pIC50 is less than 3.70.
As for `C=CCn1c(N)c(C#N)c(C#N)c1-c1ccccc1`, the pEC50 was less than 3.70 and the pIC50 was less than 3.70.
Turning to `CC(=O)OCC1=C(C(=O)O)N2C(=O)C(NC(=O)CSc3ccncc3)C2SC1` (configuration not stated), the pEC50 was 4.21 and the pIC50 is 3.20.
Turning to `COC(=O)C(C(=O)C(=O)Nc1ccc(Br)cc1)c1nc2ccc(Cl)cc2[nH]c1=O` (configuration not stated), the pEC50 is less than 4.12 and the pIC50 was 5.39.
With `O=C1N[C@@H](O)[C@@H]2ON=C(c3ccccc3)[C@H]12`, the pEC50 was less than 2.94 and the pIC50 was less than 2.94.
In the case of `CCOc1ccc(N=Nc2c(-c3ccccc3)nn(C(=O)CC(=O)Nc3ccccc3Cl)c2-c2ccccc2)cc1`, the pEC50 is less than 4.48 and the pIC50 was less than 4.48.
As to `CC(=O)NNc1nc(C)c(C(=O)NNC(=O)C(=O)Nc2ccc([N+](=O)[O-])cc2[N+](=O)[O-])s1`, the pEC50 was less than 3.69 and the pIC50 is 4.42.
In the case of `CN(C)c1nc2n(CCO)ccnc-2c(=O)n1`, the pEC50 is less than 4.00 and the pIC50 is less than 4.00.
Turning to `CC(=O)N(C(=O)CC(=O)N1N=C(c2ccccc2)C(N=Nc2ccccc2[N+](=O)[O-])C1=O)c1ccc(Cl)cc1` (configuration not stated), the pEC50 was 3.78 and the negative logarithm of the IC50 (pIC50) was less than 3.70.
Consider `CCCC(=O)Sc1ccccc1C(=O)Nc1ccc(S(=O)(=O)NC(C)=O)cc1`, for which the pEC50 was 4.55 and the pIC50 was 3.95.
As for `Nc1ccn(C2CC(F)C(CO)S2)c(=O)n1` (configuration not stated), the pEC50 is less than 4.60 and the pIC50 is less than 4.60.
As to `CCN(CC)CC(=O)NC1c2ccccc2Oc2ccccc21`, the pEC50 is less than 3.66 and the pIC50 is less than 3.66.
As for `CO/N=C1/c2sccc2[C@H](NC(=O)C(Cc2ccccc2)NC(=O)OC(C)(C)C)[C@@H]1O` (some centres not stated), the pEC50 was less than 3.70 and the pIC50 was less than 3.70.
As to `O=[N+]([O-])c1ccc2c(c1)Sc1ccccc1N2CCCCCl`, the pEC50 was less than 3.70 and the pIC50 is 4.72.
As to `CCOC(=O)C(=O)N(CC(=O)OC)C(=O)Cc1ccccc1`, the pEC50 is 3.29 and the pIC50 was 3.09.
For `N#CC1(N2CCCC2)CCC2(CC1)OCCO2`, the result was inactive.
As to `O=C(C/C=C/c1ccccc1)c1ccccc1`, the pEC50 is less than 3.70 and the pIC50 was 5.00.
For the molecule `COC(=O)c1cc(OS(=O)(=O)C(F)(F)F)c(=O)n2c1CCCC2`, the pEC50 is less than 3.70 and the pIC50 was 4.05.
Take `C/C(=N/NC(=O)CC(=O)N(C(=O)c1ccccc1Cl)c1ccc(C)cc1)c1cc2ccccc2oc1=O`: the pEC50 was less than 5.00 and the pIC50 is less than 5.00.
Consider `C/C=C1\CN2CCc3c([nH]c4ccccc34)C2C=C1CCO` (configuration not stated), for which the pEC50 was less than 3.77 and the negative-log IC50 (pIC50) was less than 3.77.
Consider `O=c1[nH]c2nncn2c2ccccc12`, for which the pEC50 is less than 3.70 and the pIC50 was less than 3.70.
For the molecule `CC(=C(C(N)=O)C(N)=O)C1C=C(c2cccs2)CC(c2ccc(Cl)cc2)=C1O` (configuration not stated), the pEC50 was less than 3.70 and the pIC50 is less than 4.00.
On to `CC(C)(C)c1cc2c(OC/C=C/c3ccccc3)c(c1)Cc1cc(C(C#N)(OC/C=C/c3ccccc3)OC/C=C/c3ccccc3)cc(c1OC/C=C\c1ccccc1)Cc1cc(C(C)(C)C)cc(c1OC/C=C/c1ccccc1)Cc1cc(C(C#N)(OC/C=C\c3ccccc3)OC/C=C/c3ccccc3)cc(c1OC/C=C\c1ccccc1)C2` (configuration not stated), for which the pEC50 is less than 4.00 and the pIC50 is less than 4.00.
With `COc1ccc([N-]/C(=N\n2c(=O)c(C)nn(C)c2=S)N(c2ccc(OC)cc2)c2nn3c(=O)c(C)n[n+](C)c3s2)cc1`, the outcome was inactive.
For `CCOc1cc2ccc3c4cc(OC)c(OC)cc4cnc3c2cc1OCC`, the pEC50 was less than 4.44 and the pIC50 was less than 4.44.
On to `O=c1cc(NNc2cccc(Cl)c2)[nH]c(=O)[nH]1`, for which the pEC50 is less than 3.70 and the pIC50 is 5.98.
In the case of `Cc1ccc2nc3cc(C)c(=O)cc-3sc2c1`, the pEC50 was less than 4.25 and the negative-log IC50 (pIC50) is 4.43.
With `CCOC(=O)c1c(Br)c(-c2ccc([N+](=O)[O-])cc2)c(Br)n1C`, the pEC50 was less than 3.70 and the pIC50 was 4.40.
The matching figures for `CNc1nc(=O)c(C#N)c(-c2ccc(C)cc2)s1`: 3.78 and less than 3.70.
Turning to `C1CSCCSCSCCS1`, the pEC50 was less than 4.35 and the pIC50 is less than 4.35.
As for `CC1(C)OCC(C(O)C2OC(C)(C)OC2/C=N\O)O1` (configuration not stated), the pEC50 was less than 3.04 and the pIC50 is less than 3.04.
As for `Cc1ccc(S(=O)(=O)N2C[C@H](O)C[C@H]2C(=O)O)cc1`, the result was inactive.
Consider `C=C1CC(COc2cc(=O)oc3ccccc23)(c2ccccc2)OC1=O` (configuration not stated), for which the pEC50 was less than 3.70 and the pIC50 was 6.42.
For the molecule `Cc1ccc(NC(=O)C(=O)Cc2cccc[n+]2[O-])cc1C`, the pEC50 was less than 4.04 and the pIC50 was less than 4.04.
As for `O=c1cc(CC(O)(C(F)(F)Cl)C(F)(F)Cl)[nH]n1-c1ccccc1`, the pEC50 is less than 3.70 and the pIC50 was 3.93.
`COc1cccc2c1C1(O)C2CCCCCCCCCC12OCCCO2` (configuration not stated): the pEC50 is less than 4.04 and the pIC50 was 4.16.
As to `O=C(O)c1ccc2c(c1)C(=O)N(c1ccc(Oc3ccc(N4C(=O)c5ccc(C(=O)O)cc5C4=O)cc3)cc1)C2=O`, the outcome was inactive.
For `CCOC(=O)CNC(=O)C(Cc1ccccc1)NC(=O)C(C)(C)NC(=O)OCc1ccccc1` (configuration not stated) (Cbz-[Aib]-[ξF]-Gly-OEt), the pEC50 was less than 3.70 and the pIC50 was 4.02.
With `Cc1cc(Cl)ccc1C1OC(=O)c2c1ccc1ccccc21` (configuration not stated), the pEC50 is less than 4.63 and the pIC50 was less than 4.63.
On to `CC(=O)Nc1c(C#N)c2n(c1C(=O)O)CCC2`, for which the pEC50 is less than 3.70 and the pIC50 is less than 3.70.
